Source: patent US20140343017A1, “PYRROLE COMPOUND” (Kabushiki Kaisha Yakult Honsha, priority 2012, published 2014)
Structures can show the parent of a compound that is named as a salt. Where two headings read alike, the source gives them in different places.

How the values were obtained:
[1] = test system: human colorectal cancer HCT116 cells; assay: Inhibitory effect on growth of human cancer cells (in vitro), WST-8; assay type: cell-based; settings: 96 hours culture
In short: (§1)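 Cells seeded at 1000 cells/well in RPMI1640 with 10% FBS, compounds added after overnight culture, then 96 h exposure. Viability by WST-8, about 1 h at 37 °C, 5% CO2, absorbance read at 450 nm.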

[2] = test system: human colorectal cancer HT-29 cells; assay: as above; assay type: cell-based; settings: 96 hours culture, read-out: IC50 (nM) HT29
In short: as §1

[3] = test system: human non-small cell lung cancer A549 cells; assay: as above; assay type: cell-based; settings: 96 hours culture
In short: as §1

[4] = test system: human lung cancer NCI-H460 xenograft tumor; assay: Antitumor effect on growth of human lung cancer NCI-H460 xenograft tumor (in vivo); parameters: species or system BALB/c nude mice; settings: Mus musculus, NCI-H460, iv, 528 h, tail vein, excised tumor weight Day 22, read-out: Inhibition Rate (%)
Description: Each compound of the present invention was studied for its in vivo antitumor effect using human lung cancer NCI-H460 cell-transplanted mice. An NCI-H460 cell suspension containing 2×10^6 cells was subcutaneously transplanted in an amount of 0.1 mL/mouse to the left groin areas of 6-week-old male BALB/c nude mice. The mice were further raised for approximately 1 week to 10 days and divided into groups (4 mice per group) having equal estimated tumor volumes at the point in time when the tumor size reached approximately 100 to 200 mm^3 (Day 1). Each administration sample was administered at a dose of 10 mL/kg into the tail vein of the mice. The dose and administration schedule of each compound were as described in Table 3. At Day 22, tumor was excised from each mouse. The tumor growth inhibition rate (IR: Inhibition Rate) was calculated from the weight of the excised tumor according to the expression shown below. The Dunnett's test was used in the significant difference test.
Tumor growth inhibition rate (Inhibition Rate, %)=(1−(Excised tumor weight of the administration group)/(Excised tumor weight of the control group))×100

[5] = Days 1, 3, 5, 8, 10, 12, 15, 17, 19
[6] = Days 1, 3, 8, 10, 12, 15, 17, 19

`CCn1nnc(-c2[nH]c(C)c(C(=O)c3cccc(Br)c3)c2C)n1` [Compound 97, (3-bromophenyl)(5-(2-ethyl-2H-tetrazol-5-yl)-2,4-dimethyl-1H-pyrrol-3-yl)methanone] was tested, and the IC50 ([1]; Homo sapiens, HCT-116, 96 h) was 4.1 nM, the IC50 ([2]; Homo sapiens, HT-29, 96 h) was 3.5 nM and the IC50 ([3]; Homo sapiens, A549, 96 h) was 2.4 nM. It also gave an inhibition in vivo at 30 mg/kg ([4]; 30 mg/kg, Days 1, 3, 5, 8, 10, 12, 15, 17, 19) of 31.2%.

`COc1cccc(C(=O)c2c(C)[nH]c(-c3nnn(CCO)n3)c2C)c1` [Compound 107] was tested, and the IC50 ([1]; Homo sapiens, HCT-116, 96 h) was 27.4 nM, the IC50 ([2]; Homo sapiens, HT-29, 96 h) was 16.1 nM and the IC50 ([3]; Homo sapiens, A549, 96 h) was 54.9 nM. For the same molecule, the inhibition in vivo at 25 mg/kg [4, 5] was 32.6%.

Work on `CCn1nnc(-c2[nH]c(C)c(C(=O)c3ccc(OC)c(Br)c3)c2C)n1` [Compound 109, (3-bromo-4-methoxyphenyl)(5-(2-ethyl-2H-tetrazol-5-yl)-2,4-dimethyl-1H-pyrrol-3-yl)methanone] yielded an IC50 ([1]; Homo sapiens, HCT-116, 96 h) of 2 nM, an IC50 ([2]; Homo sapiens, HT-29, 96 h) of 1 nM and an IC50 ([3]; Homo sapiens, A549, 96 h) of 9.2 nM. It also gave an inhibition in vivo at 25 mg/kg [4, 6] of 29%.

Work on `CCc1nnc(-c2[nH]c(C)c(C(=O)c3cccc(Br)c3)c2C)o1` [Compound 173, (3-bromophenyl)(5-(5-ethyl-1,3,4-oxadiazol-2-yl)-2,4-dimethyl-1H-pyrrol-3-yl)methanone] yielded an IC50 ([1]; Homo sapiens, HCT-116, 96 h) of 1.1 nM, an IC50 ([2]; Homo sapiens, HT-29, 96 h) of 1 nM and an IC50 ([3]; Homo sapiens, A549, 96 h) of 5.1 nM. For the same molecule, the inhibition in vivo at 10 mg/kg [4, 5] was 40.2%.

For `CCc1nnc(-c2[nH]c(C)c(C(=O)c3cccc(OC)c3)c2C)o1` [Compound 193, (5-(5-ethyl-1,3,4-oxadiazol-2-yl)-2,4-dimethyl-1H-pyrrol-3-yl) (3-methoxyphenyl)methanone], the IC50 ([1]; Homo sapiens, HCT-116, 96 h) was 2.5 nM, the IC50 ([2]; Homo sapiens, HT-29, 96 h) was 2.1 nM and the IC50 ([3]; Homo sapiens, A549, 96 h) was 4.3 nM. The inhibition in vivo at 10 mg/kg [4, 6] was 33.9%.

In the case of `COc1ccc(Br)cc1C(=O)c1c(C)[nH]c(-c2nnc(C3CC3)o2)c1C` [Compound 240, (5-bromo-2-methoxyphenyl)(5-(5-cyclopropyl-1,3,4-oxadiazol-2-yl)-2,4-dimethyl-1H-pyrrol-3-yl)methanone], the IC50 ([1]; Homo sapiens, HCT-116, 96 h) is reported as 1.9 nM, the IC50 ([2]; Homo sapiens, HT-29, 96 h) is reported as 1.1 nM and the IC50 ([3]; Homo sapiens, A549, 96 h) is reported as 2.1 nM. It also gave an inhibition in vivo at 12.5 mg/kg ([4]; 12.5 mg/kg, Days 1, 3, 5, 8, 10, 12, 15, 17, 19) of 33.2%.

With `COc1ccc(C(=O)c2c(C=O)[nH]c(-c3nnc(C4CC4)o3)c2C)cc1Br` [Compound 263, 3-(3-bromo-4-methoxybenzoyl)-5-(5-cyclopropyl-1,3,4-oxadiazol-2-yl)-4-methyl-1H-pyrrole-2-carboaldehyde] the IC50 ([1]; Homo sapiens, HCT-116, 96 h) was 53.8 nM, the IC50 ([2]; Homo sapiens, HT-29, 96 h) was 32.5 nM and the IC50 ([3]; Homo sapiens, A549, 96 h) was 36.5 nM. It also gave an inhibition in vivo at 50 mg/kg ([4]; 50 mg/kg, Days 1, 3, 5, 8, 10, 12, 15, 17, 19) of 59.6%.

`Cc1c(-c2nnc(C3CC3)o2)[nH]c(CO)c1C(=O)c1cccc(Br)c1` [Compound 264, (3-bromophenyl)(5-(5-cyclopropyl-1,3,4-oxadiazol-2-yl)-2-(hydroxymethyl)-4-methyl-1H-pyrrol-3-yl)methanone] was tested, and the IC50 ([1]; Homo sapiens, HCT-116, 96 h) was 1.8 nM, the IC50 ([2]; Homo sapiens, HT-29, 96 h) was 1.8 nM and the IC50 ([3]; Homo sapiens, A549, 96 h) was 8.2 nM.

Molecule `Cc1c(-c2nnc(C3CC3)o2)[nH]c(C(F)F)c1C(=O)c1cccc(Br)c1` [Compound 265, (3-bromophenyl)(5-(5-cyclopropyl-1,3,4-oxadiazol-2-yl)-2-(difluoromethyl)-4-methyl-1H-pyrrol-3-yl)methanone] has an IC50 ([1]; Homo sapiens, HCT-116, 96 h) of 158 nM, an IC50 ([2]; Homo sapiens, HT-29, 96 h) of 37.1 nM and an IC50 ([3]; Homo sapiens, A549, 96 h) of 46 nM.

In the case of `COc1ccc(C(=O)c2c(CN3CCCCC3)[nH]c(-c3nnc(C4CC4)o3)c2C)cc1Br` [Compound 270, (3-bromo-4-methoxyphenyl)(5-(5-cyclopropyl-1,3,4-oxadiazol-2-yl)-4-methyl-2-(piperidin-1-ylmethyl)-1H-pyrrol-3-yl)methanone], the IC50 ([1]; Homo sapiens, HCT-116, 96 h) is reported as 819 nM, the IC50 ([2]; Homo sapiens, HT-29, 96 h) is reported as 725 nM and the IC50 ([3]; Homo sapiens, A549, 96 h) is reported as 859 nM.

Work on `Cc1noc(-c2[nH]c(C)c(C(=O)c3cccc(Br)c3)c2C)n1` [Compound 271, (3-bromophenyl) (2,4-dimethyl-5-(3-methyl-1,2,4-oxadiazol-5-yl)-1H-pyrrol-3-yl)methanone] yielded an IC50 ([1]; Homo sapiens, HCT-116, 96 h) of 50.4 nM, an IC50 ([2]; Homo sapiens, HT-29, 96 h) of 44.1 nM and an IC50 ([3]; Homo sapiens, A549, 96 h) of 92.9 nM.

`CCc1cnc(-c2[nH]c(C)c(C(=O)c3cccc(Br)c3)c2C)o1` [Compound 272, (3-bromophenyl) (5-(5-ethyloxazol-2-yl)-2,4-dimethyl-1H-pyrrol-3-yl)methanone] showed an IC50 ([1]; Homo sapiens, HCT-116, 96 h) of 48.4 nM, an IC50 ([2]; Homo sapiens, HT-29, 96 h) of 42 nM and an IC50 ([3]; Homo sapiens, A549, 96 h) of 66.6 nM.

For `Cc1c(-c2nnn(CCN)n2)[nH]c(CO)c1C(=O)c1cccc(Br)c1` [Compound 280, (5-(2-(2-aminoethyl)-2H-tetrazol-5-yl)-2-(hydroxymethyl)-4-methyl-1H-pyrrol-3-yl) (3-bromophenyl)methanone], the IC50 ([1]; Homo sapiens, HCT-116, 96 h) was 250 nM, the IC50 ([2]; Homo sapiens, HT-29, 96 h) was 194 nM and the IC50 ([3]; Homo sapiens, A549, 96 h) was 250 nM.

With `CNC(=O)c1[nH]c(-c2nnn(CCN)n2)c(C)c1C(=O)c1cccc(Br)c1` [Compound 282, 5-(2-(2-aminoethyl)-2H-tetrazol-5-yl)-3-(3-bromobenzoyl)-N,4-dimethyl-1H-pyrrole-2-carboxamide] the IC50 ([1]; Homo sapiens, HCT-116, 96 h) was 754 nM, the IC50 ([2]; Homo sapiens, HT-29, 96 h) was 315 nM and the IC50 ([3]; Homo sapiens, A549, 96 h) was 525 nM.

With `Cc1c(-c2nnn(CCO)n2)[nH]c(C(C)(C)O)c1C(=O)c1cccc(Br)c1` [Compound 285, (3-bromophenyl)(5-(2-(2-hydroxyethyl)-2H-tetrazol-5-yl)-2-(2-hydroxypropan-2-yl)-4-methyl-1H-pyrrol-3-yl)methanone] the IC50 ([1]; Homo sapiens, HCT-116, 96 h) was 246 nM, the IC50 ([2]; Homo sapiens, HT-29, 96 h) was 598 nM and the IC50 ([3]; Homo sapiens, A549, 96 h) was 595 nM.

In the case of `Cc1[nH]c(-c2nnn(CCO)n2)c(Br)c1C(=O)c1cccc(Br)c1` [Compound 288, (4-bromo-5-(2-(2-hydroxyethyl)-2H-tetrazol-5-yl)-2-methyl-1H-pyrrol-3-yl)(3-bromophenyl)methanone], the IC50 ([1]; Homo sapiens, HCT-116, 96 h) is reported as 7.1 nM, the IC50 ([2]; Homo sapiens, HT-29, 96 h) is reported as 6.7 nM and the IC50 ([3]; Homo sapiens, A549, 96 h) is reported as 8.2 nM.

Molecule `Cc1[nH]c(-c2nnn(CCN)n2)c(Br)c1C(=O)c1cccc(Br)c1` [Compound 290, (5-(2-(2-aminoethyl)-2H-tetrazol-5-yl)-4-bromo-2-methyl-1H-pyrrol-3-yl)(3-bromophenyl)methanone] has an IC50 ([1]; Homo sapiens, HCT-116, 96 h) of 184 nM, an IC50 ([2]; Homo sapiens, HT-29, 96 h) of 123 nM and an IC50 ([3]; Homo sapiens, A549, 96 h) of 167 nM.

`CNC(=O)c1[nH]c(-c2nnn(CCOC(C)=O)n2)c(C)c1C(=O)c1ccc(OC)c(Br)c1` [Compound 295, 2-(5-(4-(3-bromo-4-methoxybenzoyl)-3-methyl-5-(methylcarbamoyl)-1H-pyrrol-2-yl)-2H-tetrazol-2-yl)ethyl acetate] was tested, and the IC50 ([1]; Homo sapiens, HCT-116, 96 h) was 957 nM, the IC50 ([2]; Homo sapiens, HT-29, 96 h) was 460 nM and the IC50 ([3]; Homo sapiens, A549, 96 h) was 509 nM.

Work on `CCn1nnc(-c2[nH]c(C)c(C(=O)c3cccc(OCCN)c3)c2C)n1` [Compound 296, (3-(2-aminoethoxy)phenyl)(5-(2-ethyl-2H-tetrazol-5-yl)-2,4-dimethyl-1H-pyrrol-3-yl)methanone hydrochloride] yielded an IC50 ([1]; hydrochloride) of 208 nM, an IC50 ([2]; hydrochloride) of 198 nM and an IC50 ([3]; hydrochloride) of 637 nM.

`Cc1[nH]c(-c2nnn(CCOC(=O)CN)n2)c(C)c1C(=O)c1cccc(Br)c1` [Compound 297, 2-(5-(4-(3-bromobenzoyl)-3,5-dimethyl-1H-pyrrol-2-yl)-2H-tetrazol-2-yl)ethyl 2-aminoacetate hydrochloride] was tested, and the IC50 ([1]; hydrochloride) was 7.3 nM, the IC50 ([2]; hydrochloride) was 8.2 nM and the IC50 ([3]; hydrochloride) was 12.2 nM.

`CCn1nnc(-c2[nH]c(C)c(C(=O)c3ccc(OCCN)c(Br)c3)c2C)n1` [Compound 302, (4-(2-aminoethoxy)-3-bromophenyl)(5-(2-ethyl-2H-tetrazol-5-yl)-2,4-dimethyl-1H-pyrrol-3-yl)methanone hydrochloride] gave an IC50 ([1]; hydrochloride) of 35 nM, an IC50 ([2]; hydrochloride) of 33 nM and an IC50 ([3]; hydrochloride) of 47.4 nM.
